Data taken from US11981680B2, “Substituted thienopyrroles as PAD4 inhibitors” (BRISTOL-MYERS SQUIBB COMPANY, priority 2018, dated 2024).

Target: human PAD4 (hPAD4) (Homo sapiens (Human), UniProt Q9UM07)
Assay: RFMS Human PAD4 Functional Assay
Type: biochemical
Settings: rapid-fire mass spectrum (RFMS) assay; 5 nM hPAD4 enzyme, 250 μM BAEE, 30 min preincubation at 37° C.
Experimental: Compounds of the present invention were assayed as inhibitors of PAD4 using the assay protocol described below.
RFMS Human PAD4 Functional Assay:
Compounds were solubilized in 100% DMSO to achieve a10 mM compound concentration. Compound stock solutions were stored at RT. A series of dilutions were prepared in DMSO and mixed 8 times with 20 μL mixing volume. Final top concentration of compound in the assay is 50 μM. Final assay conditions were as follows: • Reaction volume: 26 μl • Assay buffer: 25 mM hepes, pH 7.5, 5 mM NaCl, 1 mM DTT, 0.2 mg/ml BSA, 0.01% CHAPS, 50 μM Calcium, and 5 μM TPEN • Final concentrations: 5 nM hPAD4 enzyme, 250 μM BAEE, and 0.5% DMSO • Total incubation time: 30 mins compound and enzyme preincubation at 37° C., 90 min enzyme/substrate reaction, 30 min reaction with phenyl glyoxal at 37° C. • Stop solution: 40 μl 5% TCA in ACN
0.13 μL of compound solution was added to 13 μL of 10 nM PAD4 in assay buffer. After 30 min 13 μl of 500 μM of BAEE was added in 25 mM hepes, pH 7.5, 5 mM NaCl, 1 mM DTT, 0.2 mg/ml BSA, 0.01% CHAPS, 50 μM Calcium, 5 μM TPEN was added and the reaction incubated for 90 min at 37° C. The enzymatic reaction was quenched by addition of 15 μl of 6.1N TCA, 100% Final Concentration is 20%, 35 μl of 8.5 mM phenyl glyoxal (final concentration 4 mM) is then added and the reaction is incubated for 30 min at 37° C.
After 30 minutes the plates are spun down to remove all precipitate. The enzyme reaction was quenched with an equal volume of methanol containing internal standard (modified citrulline). Samples were loaded onto the Rapid Fire RF300 system (Agilent) wherein they were first sipped for 1000 ms and then directly loaded to a C18 separations cartridge using a mixture of acetonitrile containing 0.01% formic acid for 3000 ms desalting. The flow rate of the mobile phase was 1.5 ml/min. Once the samples were eluted from the cartridge, a mobile phase of acetonitrile containing 0.01% formic acid was used to move the samples into the mass spectrometer for 4000 ms at a flow rate of 1.25 ml/min/Sciex API5500 triple quadrupole mass spectrometer (Applied Biosystems) equipped with ESI was used to analyze the peptidyl citrulline and internal standard ions.
MRM transition of product and internal standard were monitored at m/z 424.5 to 350.4 and m/z 293 to 247 respectively. The dwell time for each transition was set at 200 ms, and the ESI voltage was used at 5500 with a source temperature of 400° C. Extracted ion peaks for each transition were integrated using the Rapid Fire Integrator software. Peak area of analyte was normalized with internal standard.).

Chain of human PAD4 (hPAD4) (Q9UM07 whole entry): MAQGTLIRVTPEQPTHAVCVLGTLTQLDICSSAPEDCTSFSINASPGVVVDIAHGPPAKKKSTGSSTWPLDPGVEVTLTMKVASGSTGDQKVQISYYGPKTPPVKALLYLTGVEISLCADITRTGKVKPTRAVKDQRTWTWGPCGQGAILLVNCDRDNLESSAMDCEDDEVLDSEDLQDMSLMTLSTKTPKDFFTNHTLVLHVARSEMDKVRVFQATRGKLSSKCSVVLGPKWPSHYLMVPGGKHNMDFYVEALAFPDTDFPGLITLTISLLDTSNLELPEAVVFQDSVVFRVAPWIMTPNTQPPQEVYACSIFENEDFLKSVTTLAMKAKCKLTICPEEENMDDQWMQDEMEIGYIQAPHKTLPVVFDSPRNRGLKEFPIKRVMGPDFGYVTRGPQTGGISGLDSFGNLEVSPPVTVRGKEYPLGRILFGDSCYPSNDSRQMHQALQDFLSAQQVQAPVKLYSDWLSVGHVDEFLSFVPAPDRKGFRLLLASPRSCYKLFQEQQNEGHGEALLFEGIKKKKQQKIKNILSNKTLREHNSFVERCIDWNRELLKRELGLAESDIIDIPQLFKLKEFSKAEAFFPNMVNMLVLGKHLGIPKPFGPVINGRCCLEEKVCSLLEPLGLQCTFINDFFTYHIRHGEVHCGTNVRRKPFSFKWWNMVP

Row | IC50 [µM] | Compound
1 | 0.019 | COc1cc(C(=O)N2C[C@H]3CC[C@@H]2[C@@H]3N)cc2nc(-c3cc4scc(C5CC(NC(C)=O)C5)c4n3CC3CC3)n(C)c12 (stereo partly drawn) [Example 5, N-(3-(5-(5-((1R,4R,7R)-7-amino-2-azabicyclo[2.2.1]heptane-2-carbonyl)-7-methoxy-1-methyl-1H-benzo[d]imidazol-2-yl)-4-(cyclopropylmethyl)-4H-thieno[3,2-b]pyrrol-3-yl)cyclobutyl)acetamide]
2 | 0.107 | COc1cc(C(=O)N2C[C@H]3CC[C@@H]2[C@@H]3N)cc2nc(-c3cc4sc(-c5cn[nH]c5)cc4n3CC3CC3)n(C)c12 [Example 26, ((1R,4R,7R)-7-amino-2-azabicyclo[2.2.1]heptan-2-yl)(2-(4-(cyclopropylmethyl)-2-(1H-pyrazol-4-yl)-4H-thieno[3,2-b]pyrrol-5-yl)-7-methoxy-1-methyl-1H-benzo[d]imidazol-5-yl)methanone]
3 | 0.054 | COc1cc(C(=O)N2C[C@H]3CC[C@@H]2[C@@H]3N)cc2nc(-c3cc4scc(-c5ccn(C)n5)c4n3CC3CC3)n(C)c12 [Example 37, ((1R,4R,7R)-7-amino-2-azabicyclo[2.2.1]heptan-2-yl)(2-(4-(cyclopropylmethyl)-3-(1-methyl-1H-pyrazol-3-yl)-4H-thieno[3,2-b]pyrrol-5-yl)-7-methoxy-1-methyl-1H-benzo[d]imidazol-5-yl)methanone]
4 | 0.014 | COc1cc(C(=O)N2C[C@H]3CC[C@@H]2[C@@H]3N)cc2nc(-c3cc4scc(C5CCN(C(C)=O)CC5)c4n3CC3CC3)n(C)c12 [Example 4, 1-(4-(5-(5-((1R,4R,7R)-7-amino-2-azabicyclo[2.2.1]heptane-2-carbonyl)-7-methoxy-1-methyl-1H-benzo[d]imidazol-2-yl)-4-(cyclopropylmethyl)-4H-thieno[3,2-b]pyrrol-3-yl)piperidin-1-yl)ethan-1-one]
5 | 0.15 | COc1cc(C(=O)N2C[C@H]3CC[C@@H]2[C@@H]3N)cc2nc(-c3cc4scc(-c5ccc(O)c(Cl)c5)c4n3CC3CC3)n(C)c12 [Example 35, ((1R,4R,7R)-7-amino-2-azabicyclo[2.2.1]heptan-2-yl)(2-(3-(3-chloro-4-hydroxyphenyl)-4-(cyclopropylmethyl)-4H-thieno[3,2-b]pyrrol-5-yl)-7-methoxy-1-methyl-1H-benzo[d]imidazol-5-yl)methanone]
6 | 0.04 | COc1cc(C(=O)N2C[C@H]3CC[C@@H]2[C@@H]3N)cc2nc(-c3cc4scc(C5CCOCC5)c4n3CC3CC3)n(C)c12 [Example 8, ((1R,4R,7R)-7-amino-2-azabicyclo[2.2.1]heptan-2-yl)(2-(4-(cyclopropylmethyl)-3-(tetrahydro-2H-pyran-4-yl)-4H-thieno[3,2-b]pyrrol-5-yl)-7-methoxy-1-methyl-1H-benzo[d]imidazol-5-yl)methanone]
7 | 0.012 | COc1cc(C(=O)N2C[C@H]3CC[C@@H]2[C@@H]3N)cc2nc(-c3cc4scc(C5CCNCC5)c4n3CC3CC3)n(C)c12 [Example 3, ((1R,4R,7R)-7-amino-2-azabicyclo[2.2.1]heptan-2-yl)(2-(4-(cyclopropylmethyl)-3-(piperidin-4-yl)-4H-thieno[3,2-b]pyrrol-5-yl)-7-methoxy-1-methyl-1H-benzo[d]imidazol-5-yl)methanone]
8 | 0.173 | COc1cc(C(=O)N2C[C@H]3CC[C@@H]2[C@@H]3N)cc2nc(-c3cc4scc(-c5ccc[nH]5)c4n3CC3CC3)n(C)c12 [Example 46, ((1R,4R,7R)-7-amino-2-azabicyclo[2.2.1]heptan-2-yl)(2-(4-(cyclopropylmethyl)-3-(1H-pyrrol-2-yl)-4H-thieno[3,2-b]pyrrol-5-yl)-7-methoxy-1-methyl-1H-benzo[d]imidazol-5-yl)methanone]
9 | 0.049 | COc1cc(C(=O)N2C[C@H]3CC[C@@H]2[C@@H]3N)cc2nc(-c3cc4scc(C5CCOC5)c4n3CC3CC3)n(C)c12 (stereo partly drawn) [Example 12, ((1R,4R,7R)-7-amino-2-azabicyclo[2.2.1]heptan-2-yl)(2-(4-(cyclopropylmethyl)-3-(tetrahydrofuran-3-yl)-4H-thieno[3,2-b]pyrrol-5-yl)-7-methoxy-1-methyl-1H-benzo[d]imidazol-5-yl)methanone]
10 | 0.063 | COc1cc(C(=O)N2C[C@H]3CC[C@@H]2[C@@H]3N)cc2nc(-c3cc4scc(C5COC5)c4n3CC3CC3)n(C)c12 [Example 2, ((1R,4R,7R)-7-amino-2-azabicyclo[2.2.1]heptan-2-yl)(2-(4-(cyclopropylmethyl)-3-(oxetan-3-yl)-4H-thieno[3,2-b]pyrrol-5-yl)-7-methoxy-1-methyl-1H-benzo[d]imidazol-5-yl)methanone]
